# Results reported in article PMC8541992, “Safety, pharmacokinetics, and preliminary efficacy of the PARP inhibitor talazoparib in Japanese patients with advanced solid tumors: phase 1 study” (Investigational New Drugs, 2021).
# pIC50: −log10 of the molar value. Where two headings read alike, the source gives them in different places.
# Legend:
# [1] = tested on: locally advanced or metastatic solid tumors; assay: Phase 1 study: antitumor activity, investigator assessment (RECIST v.1.1); format: in vivo, human (Japanese patients)
# Protocol: Antitumor activity was evaluated using radiological tumor assessments of all known or suspected disease sites. Imaging could include chest, abdomen, and pelvis computed tomography (CT) or magnetic resonance imaging (MRI) scans. Brain scans and bone scans were performed at baseline if disease was suspected and during the study as appropriate. CT or MRI scans were conducted at baseline (screening visit), on Day 1 (±7 days) of Cycle 2, and every other cycle thereafter, whenever disease progression was suspected, and at the time of withdrawal from treatment (if not performed within 6 weeks). Tumor response (unconfirmed) was assessed using Response Evaluation Criteria in Solid Tumors (RECIST) v.1.1, and included best overall response (complete response [CR], partial response [PR], stable disease [SD], progressive disease [PD], and non-CR/non-PD), objective response, defined as the sum of CR and PR, and overall disease control rate, defined as the sum of CR, PR, SD, and non-CR/non-PD.
# [2] = tested on: HER2-negative advanced breast cancer with a germline BRCA1/2 mutation; parameters: method as in PMID 30110579, PMID 30124753; conditions: 1 mg QD versus chemotherapy; 95% CI 0.41 to 0.71, P < 0.001; cited from earlier work
# [3] = tested on: PARP; parameters: method as in PMID 24356813, PMID 31296812; conditions: PARP inhibition; read-out: Half-maximal inhibitory concentration; cited from earlier work
# [4] = tested on: PARP on DNA; parameters: method as in PMID 24356813; conditions: compared with other PARP inhibitors under investigation or approved in Japan; cited from earlier work
# [5] = Phase 1 study: single- and multiple-dose plasma pharmacokinetics; format: in vivo, human (Japanese patients); conditions: for Rac (ratio of AUCtau after multiple doses/AUCtau after single dose) / Rss (ratio of AUCtau after multiple doses/AUCinf after single dose) / Tmax: median (range); for Cmax / AUC / AUC(0-inf) / Cmin: geometric mean (geometric %CV); for half-life: read-out: t1/2 (terminal half-life) (converted); for AUC: AUCtau = AUC24
# Protocol: PK parameters following single- and multiple-dose administration of single-agent talazoparib, included talazoparib area under the plasma concentration-time curve from 0 h to infinity (AUCinf; single dose) and during the dosing interval ([NT], multiple dosing); maximum observed plasma concentration (Cmax); lowest plasma concentration observed during the dosing interval (Cmin); elimination half-life (t1/2); time to Cmax (Tmax); ratio of [NT] after multiple doses/[NT] after single dose (Rac); and ratio of [NT] after multiple doses/AUCinf after single dose (Rss). PK parameters were calculated for each patient using non-compartmental analysis of plasma concentration-time data. Blood samples were collected pre-dose on Day -7, and on Days 1, 15, and 22 of Cycle 1, and Day 1 of Cycles 3 and 4. Post-dose blood samples were also collected at 0.5, 0.75, 1, 2, 3, 4, 6, 8, 10, and 24 h (Day -7 and Day 22 of Cycle 1 only) and at 48, 72, and 96 h (Day -7 only). […] PK parameters and safety data were summarized descriptively.
# [6] = tested on: Japanese patients with locally advanced or metastatic solid tumors; assay: Phase 1 dose-escalation study: safety (DLTs, TEAEs)
# Description: This is an ongoing open-label, non-randomized, phase 1 study of the PARP inhibitor, talazoparib, in Japanese patients with locally advanced or metastatic solid tumors regardless of mutations in DDR-related genes who are resistant to standard therapies or for whom no standard therapy is available (ClinicalTrials.gov NCT03343054). The study comprises a dose-escalation phase and a dose-expansion phase conducted in 8 Japanese centers (Supplementary Fig. 1). The objective of the initial dose-escalation phase was to investigate the safety, PK (single-dose and steady-state), and preliminary antitumor activity of single-agent talazoparib in sequential cohorts of patients with advanced solid malignancies. A modified 3 + 3 dose-escalation scheme was used to determine the recommended phase 2 dose in Japanese patients; up to 3 patients could be enrolled simultaneously in a cohort although sometimes due to logistical or clinical reasons more than 3 but no more than 9 patients were enrolled at each dose level. Successive cohorts of patients received escalating doses of talazoparib on an outpatient basis starting from 0.75 mg/day. To understand the single-dose safety and single-dose PK assessments of talazoparib, a lead-in period preceding the continuous daily doses was included. Data for the dose-escalation phase are reported here (data cut-off January 2020).
# Eligible patients were assigned to one of two talazoparib treatment groups (dose levels). Successive cohorts of patients received talazoparib dosed orally at 0.75 mg QD (3 capsules of 0.25 mg) or 1 mg QD (4 capsules of 0.25 mg), with or without food, on an outpatient basis according to a modified 3 + 3 dose-escalation scheme. On Day −7 (lead-in visit), patients received a single dose of talazoparib, followed by continuous daily dosing from Day 1 of each 28-day cycle. Patients continued to receive talazoparib until either disease progression, patient refusal of study treatment, or unacceptable toxicity. Dose modifications were allowed depending on the type and severity of the toxicity encountered. To continue talazoparib, patients were required to have adequate bone marrow functions (hemoglobin ≥8.0 g/dL, absolute neutrophil count ≥1000/mm^3, platelets ≥50,000/mm^3). If grade 1 or grade 2 treatment-related toxicity occurred (other than renal impairment), dose interruption or dose reduction were not required. Daily dosing was paused for grade ≥3 adverse events (AEs) considered related to talazoparib. Supportive care including blood products for hematologic toxicities was allowed as appropriate per local guidance. Talazoparib dosing could resume at the next lower dose level (e.g., from 1.0 mg/day to 0.75 mg/day; 0.75 mg/day to 0.5 mg/day; 0.5 mg/day to 0.25 mg/day) when toxicity resolved to grade 1 or returned to baseline. […]
# [7] = tested on: non-Japanese patients with advanced breast cancer; parameters: method as in PMID 32162822; conditions: EMBRACA study; cited from earlier work
# [8] = 0.75 mg QD oral, N = 3, listed as talazoparib
# [9] = 1 mg QD oral, N = 6, listed as talazoparib
# [10] = plasma, multiple dose 0.75 mg QD oral, N = 3
compound,measurement,setting,value
"Cn1ncnc1[C@H]1c2n[nH]c(=O)c3cc(F)cc(c23)N[C@@H]1c1ccc(F)cc1 [Talazoparib, talazoparib]",Best overall response (unconfirmed): CR,"[1]; 0.75 mg QD oral, N = 3",0 n (%)
same,Best overall response (unconfirmed): Non-CR/non-PD,"[1]; 0.75 mg QD oral, N = 3",1 (33.3) n (%)
same,Best overall response (unconfirmed): PD,"[1]; 0.75 mg QD oral, N = 3",2 (66.7) n (%)
same,Best overall response (unconfirmed): PR,"[1]; 0.75 mg QD oral, N = 3",0 n (%)
same,Best overall response (unconfirmed): SD,"[1]; 0.75 mg QD oral, N = 3",0 n (%)
same,Disease control (CR + PR + SD + non-CR/non-PD),"[1]; 0.75 mg QD oral, N = 3",1 (33.3) n (%)
same,Objective response (CR + PR),"[1]; 0.75 mg QD oral, N = 3",0 n (%)
same,Best overall response (unconfirmed): CR,"[1]; 1 mg QD oral, N = 6",0 n (%)
same,Best overall response (unconfirmed): Non-CR/non-PD,"[1]; 1 mg QD oral, N = 6",1 (16.7) n (%)
same,Best overall response (unconfirmed): PD,"[1]; 1 mg QD oral, N = 6",3 (50.0) n (%)
same,Best overall response (unconfirmed): PR,"[1]; 1 mg QD oral, N = 6",0 n (%)
same,Best overall response (unconfirmed): SD,"[1]; 1 mg QD oral, N = 6",2 (33.3) n (%)
same,Disease control (CR + PR + SD + non-CR/non-PD),"[1]; 1 mg QD oral, N = 6",3 (50.0) n (%)
same,Objective response (CR + PR),"[1]; 1 mg QD oral, N = 6",0 n (%)
same,Overall disease control rate (CR + PR + SD + non-CR/non-PD),"[1]; all 9 patients, 0.75 and 1 mg QD, unconfirmed responses",44.4%
same,Best overall response (unconfirmed): CR,"[1]; total, 0.75 and 1 mg QD, N = 9",0 n (%)
same,Best overall response (unconfirmed): Non-CR/non-PD,"[1]; total, 0.75 and 1 mg QD, N = 9",2 (22.2) n (%)
same,Best overall response (unconfirmed): PD,"[1]; total, 0.75 and 1 mg QD, N = 9",5 (55.6) n (%)
same,Best overall response (unconfirmed): PR,"[1]; total, 0.75 and 1 mg QD, N = 9",0 n (%)
same,Best overall response (unconfirmed): SD,"[1]; total, 0.75 and 1 mg QD, N = 9",2 (22.2) n (%)
same,Disease control (CR + PR + SD + non-CR/non-PD),"[1]; total, 0.75 and 1 mg QD, N = 9",4 (44.4) n (%)
same,Objective response (CR + PR),"[1]; total, 0.75 and 1 mg QD, N = 9",0 n (%)
same,PARP-trapping potential relative to other PARP inhibitors,[4],approximately 100 times greater
same,Dose proportionality of drug exposure (Cmax and AUC),[5]; 1 mg dose level compared with 0.75 mg dose level,slightly higher than dose-proportional
same,Cmax,"[5]; human, plasma, po, 0.75 mg, multiple dose 0.75 mg QD oral, N = 3",14.4 ng/mL
same,half-life,"[5]; human, plasma, po, 0.75 mg, plasma, single dose 0.75 mg oral, N = 3, mean (standard deviation)",56.6 h
same,Tmax,"[5]; human, plasma, po, 0.75 mg, plasma, single dose 0.75 mg oral, N = 3, read-out: Tmax",0.98 h
same,Cmax,"[5]; human, plasma, po, 0.75 mg, single dose 0.75 mg oral, N = 3",7.24 ng/mL
same,Cmax,"[5]; human, plasma, po, 1 mg, multiple dose 1 mg QD oral, N = 6",32.8 ng/mL
same,Tmax,"[5]; human, plasma, po, 1 mg, plasma, multiple dose 1 mg QD oral, N = 6, read-out: Tmax",1.03 h
same,half-life,"[5]; human, plasma, po, 1 mg, plasma, single dose 1 mg oral, N = 6, mean (standard deviation)",50.7 h
same,Tmax,"[5]; human, plasma, po, 1 mg, plasma, single dose 1 mg oral, N = 6, read-out: Tmax",0.97 h
same,Cmax,"[5]; human, plasma, po, 1 mg, single dose 1 mg oral, N = 6",13.8 ng/mL
same,AUC,"[5]; human, plasma, multiple dose 0.75 mg QD oral, N = 3",127 ng·h/mL
same,AUC,"[5]; human, plasma, multiple dose 1 mg QD oral, N = 6",245 ng·h/mL
same,AUC(0-inf),"[5]; human, plasma, single dose 0.75 mg oral, N = 3",108 ng·h/mL
same,AUC(0-inf),"[5]; human, plasma, single dose 1 mg oral, N = 6",200 ng·h/mL
same,Cmin,[5]; [10],2.18 (8) ng/mL
same,Tmax,[5]; [10],1.02 (1.0–1.9) h
same,Cmin,"[5]; plasma, multiple dose 1 mg QD oral, N = 6",3.65 (49) ng/mL
same,t1/2 (terminal half-life),"[5]; plasma, single dose 1 mg oral, N = 6, mean (standard deviation)",50.73 (10.1) h
same,Time to peak of mean plasma concentrations,[5]; single or multiple dosing at 0.75 mg QD or 1 mg QD,around 1 h
same,TEAE leading to death,"[6]; 0.75 mg QD oral, N = 3",0 n (%)
same,TEAE leading to death,"[6]; 1 mg QD oral, N = 6",0 n (%)
same,Dose reduction due to TEAE,"[6]; human, in vivo",1 (11.1) n (%)
same,TEAE leading to death,"[6]; total, 0.75 and 1 mg QD, N = 9",0 n (%)
same,Patients discontinued due to anemia,[7],0.7%
same,Patients discontinued due to hematologic toxicities,[7],1.4%
